Read-outs that look alike come from different tables or passages of the source.
What was measured:
Ramos RA1 B cells = assay: Ramos FLIPR Assay (intracellular calcium flux, anti-human IgM stimulated); format: cell-based; settings: for IC50: Ramos; for Potency Difference Ramos: ratio of IC50 value for the Comparative Example to that for the corresponding Example: Comparative Example (stereoisomer) IC50 / Example IC50
Protocol: Ramos FLIPR Assay […] Dye-loaded cells were pelleted (Beckmann GS-CKR, 1200 rpm, room temperature, 5 min) and resuspended at room temperature in RPMI minus phenol red with 50 mM HEPES and 10% FBS to a density of 1×10^6 cells/mL. 150 μL aliquots (150,000 cells/well) were plated into 96 well poly-D-lysine coated assay plates (BD 35 4640) and briefly centrifuged (Beckmann GS-CKR 800 rpm, 5 min, without brake). Next, 50 μL compound dilutions in 0.4% DMSO/RPMI minus phenol red+50 mM HEPES+10% FBS were added to the wells and the plate was incubated at room temperature in the dark for 1 hour. The assay plate was briefly centrifuged as above prior to measuring calcium levels. Using the […] (Molecular Devices), cells were stimulated by adding goat anti-human IgM (Invitrogen AHI0601) to 2.5 μg/mL. Changes in intracellular calcium concentrations were measured for 180 seconds and percent inhibition was determined relative to peak calcium levels seen in the presence of stimulation only. The Ramos assay measures the ability of a compound to move through the cell membrane into the cell interior. A lower IC50 value indicates a greater ability to move into the cell interior.

human recombinant Btk = human recombinant Btk (Homo sapiens (Human), UniProt Q06187); assay: Human Recombinant Btk Enzyme Assay; format: biochemical; settings: for Potency Difference Btk: ratio of IC50 value for the Comparative Example to that for the corresponding Example: Comparative Example (stereoisomer) IC50 / Example IC50
Protocol: Human Recombinant Btk Enzyme Assay
To V-bottom 384-well plates were added test compounds, human recombinant Btk (1 nM, Invitrogen Corporation), fluoresceinated peptide (1.5 μM), ATP (20 μM), and assay buffer (20 mM HEPES pH 7.4, 10 mM MgCl2, 0.015% Brij 35 surfactant and 4 mM DTT in 1.6% DMSO), with a final volume of 30 μL. After incubating at room temperature for 60 min, the reaction was terminated by adding 45 μL of 35 mM EDTA to each sample. The reaction mixture was analyzed on the Caliper LABCHIP® 3000 (Caliper, Hopkinton, Mass.) by electrophoretic separation of the fluorescent substrate and phosphorylated product. […] Compounds were dissolved at 10 mM in DMSO and evaluated at eleven concentrations.

[1] = Homo sapiens, Table 4, Comparative Example, read-out: Comparative Example Ramos IC50
[2] = Table 4, Comparative Example, read-out: Comparative Example Btk IC50
[3] = Table 3, ATP 20 μM, 60 min room temperature, read-out: Btk IC50 value
[4] = Homo sapiens, Table 4, read-out: Example Ramos IC50
[5] = Table 3, calcium flux, goat anti-human IgM 2.5 μg/mL, read-out: Ramos IC50 value
[6] = Table 4, read-out: Example Btk IC50

Sequence of human recombinant Btk (Q06187 whole entry): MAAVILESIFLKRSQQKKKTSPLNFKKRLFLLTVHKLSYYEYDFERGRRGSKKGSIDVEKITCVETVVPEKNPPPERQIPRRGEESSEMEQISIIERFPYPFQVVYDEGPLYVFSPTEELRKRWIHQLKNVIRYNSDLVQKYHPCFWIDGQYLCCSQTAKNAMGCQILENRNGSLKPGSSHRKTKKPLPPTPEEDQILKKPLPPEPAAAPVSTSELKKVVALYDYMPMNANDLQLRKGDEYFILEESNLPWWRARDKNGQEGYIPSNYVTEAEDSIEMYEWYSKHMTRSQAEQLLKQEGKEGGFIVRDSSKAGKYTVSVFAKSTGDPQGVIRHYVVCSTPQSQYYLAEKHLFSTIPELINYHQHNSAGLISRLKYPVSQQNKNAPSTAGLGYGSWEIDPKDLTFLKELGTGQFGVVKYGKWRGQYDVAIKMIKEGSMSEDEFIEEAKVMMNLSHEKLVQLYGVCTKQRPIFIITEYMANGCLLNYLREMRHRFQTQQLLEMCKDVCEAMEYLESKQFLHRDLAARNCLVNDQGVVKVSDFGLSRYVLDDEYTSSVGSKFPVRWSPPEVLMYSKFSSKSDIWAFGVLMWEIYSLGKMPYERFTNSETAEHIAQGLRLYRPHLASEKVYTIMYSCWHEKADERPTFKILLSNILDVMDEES

Q: Which results are given for `C=CC(=O)N1CCOc2c(-c3c(F)cc(C(N)=O)c4[nH]c5ccccc5c34)cccc21` (single isomer, unassigned) [Comparative Example 18, 4-(4-Acryloyl-3,4-dihydro-2H-benzo[b][1,4]oxazin-8-yl)-3-fluoro-9H-carbazole-1-carboxamide]?
A: IC50 (Ramos RA1 B cells; [1]): 65 nM; IC50 (human recombinant Btk; [2]): 1.5 nM

Q: Which IC50 (Ramos RA1 B cells; Homo sapiens, Table 3, calcium flux, goat anti-human IgM 2.5 μg/mL, read-out: Ramos IC50 value) does the source give for `C=CC(=O)N1CCc2c(cccc2-c2c(Cl)cc(C(N)=O)c3[nH]c4c(c23)CCCC4)C1` (racemic) [Example 32, 5-(2-acryloyl-1,2,3,4-tetrahydroisoquinolin-5-yl)-6-chloro-2,3,4,9-tetrahydro-1H-carbazole-8-carboxamide] here?
A: 46 nM

Q: And the IC50 (human recombinant Btk; [3])?
A: 0.6 nM

Q: `C=CC(=O)N1CCc2c(cccc2-c2c(F)cc(C(N)=O)c3[nH]c4c(c23)CC(F)(F)CC4)C1` (single isomer, unassigned) [Comparative Example 16, 5-(2-Acryloyl-1,2,3,4-tetrahydroisoquinolin-5-yl)-3,3,6-trifluoro-2,3,4,9-tetrahydro-1H-carbazole-8-carboxamide] was tested. Which IC50 (Ramos RA1 B cells; [1]) did it give?
A: > 300 nM

Q: And the IC50 (human recombinant Btk; [2])?
A: 4.5 nM

Q: `C=CC(=O)N1CCSc2c(-c3c(F)cc(C(N)=O)c4[nH]c5ccccc5c34)cccc21` (single isomer, unassigned) [Example 14, 4-(4-acryloyl-3,4-dihydro-2H-benzo[b][1,4]thiazin-8-yl)-3-fluoro-9H-carbazole-1-carboxamide] was tested. Which “Potency Difference Ramos: ratio of IC50 value for the Comparative Example to that for the corresponding Example” value (Ramos RA1 B cells) did it give?
A: 19

Q: What about the IC50 (Ramos RA1 B cells; [4]) of the same molecule?
A: 7.8 nM

Q: And the IC50 (Ramos RA1 B cells; [5])?
A: 7.8 nM

Q: What about the “Potency Difference Btk: ratio of IC50 value for the Comparative Example to that for the corresponding Example” value (human recombinant Btk) of the same molecule?
A: 60

Q: What about the IC50 (human recombinant Btk; [3]) of the same molecule?
A: 0.073 nM

Q: And the IC50 (human recombinant Btk; [6])?
A: 0.073 nM

Q: Which “Potency Difference Ramos: ratio of IC50 value for the Comparative Example to that for the corresponding Example” value (Ramos RA1 B cells) does the source give for `C=CC(=O)N1CCOc2c(-c3c(F)cc(C(N)=O)c4[nH]c5ccccc5c34)cccc21` (single isomer, unassigned) [Example 8, 4-(4-Acryloyl-3,4-dihydro-2H-benzo[b][1,4]oxazin-8-yl)-3-fluoro-9H-carbazole-1-carboxamide] here?
A: 9.4

Q: And the IC50 (Ramos RA1 B cells; [4])?
A: 6.9 nM

Q: What about the IC50 (Ramos RA1 B cells; [5]) of the same molecule?
A: 6.9 nM

Q: What about the “Potency Difference Btk: ratio of IC50 value for the Comparative Example to that for the corresponding Example” value (human recombinant Btk) of the same molecule?
A: 19

Q: And the IC50 (human recombinant Btk; [3])?
A: 0.077 nM

Q: And the IC50 (human recombinant Btk; [6])?
A: 0.077 nM

Q: Which IC50 (Ramos RA1 B cells; [1]) does the source give for `C=CC(=O)N1CCc2c(cccc2-c2c(F)cc(C(N)=O)c3[nH]c4cc(C(F)(F)F)ccc4c23)C1` (single isomer, unassigned) [Comparative Example 17, 4-(2-Acryloyl-1,2,3,4-tetrahydroisoquinolin-5-yl)-3-fluoro-7-(trifluoromethyl)-9H-carbazole-1-carboxamide] here?
A: > 300 nM

Q: And the IC50 (human recombinant Btk; [2])?
A: 14 nM

Q: With `C=CC(=O)N1CCSc2c(-c3c(F)cc(C(N)=O)c4[nH]c5ccccc5c34)cccc21` (racemic) [Example 13, (RS)-4-(4-acryloyl-3,4-dihydro-2H-benzo[b][1,4]thiazin-8-yl)-3-fluoro-9H-carbazole-1-carboxamide] as the molecule, how does the IC50 (Ramos RA1 B cells; [5]) read?
A: 9.2 nM

Q: And the IC50 (human recombinant Btk; [3])?
A: 0.13 nM

— US10023534B2 (BRISTOL-MYERS SQUIBB COMPANY, priority 2014, dated 2018)
